From patent publication US20250092065A1, “2-(INDAZOL-5-YL)-6-(PIPERIDIN-4-YL)-1,7-NAPHTHYRIDINE DERIVATIVES AND RELATED COMPOUNDS AS MODULATORS FOR SPLICING NUCLEIC ACIDS AND FOR THE TREATMENT OF PROLIFERATIVE DISEASES” (REMIX THERAPEUTICS INC., priority 2022, published 2025)
Counter-ions that a name gives are not always drawn. Like-named read-outs stand apart in the source and are kept apart here.

Assays:
Target C = test: HiBiT protein abundance assay, Target C (K562 HiBiT knock-in); format: cell-based, human; settings: HiBiT knock-in K562 cells, 24 hours, top dose 10 μM
In short: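 K562 HiBiT knock-in cells (10000/well) were treated 24 h at 37° C with a 10-point 3-fold dilution series (top 10 μM final, ≤0.25% DMSO). HiBiT luminescence was read after lytic LgBiT detection. Percent response used unmodified K562 and DMSO-treated knock-in controls, and IC50 came from a four-parameter fit at 50% of untreated.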

MYB mRNA = test: RT-qPCR splicing assay, MYB mRNA canonical (CJ) and alternative (AJ) junction; format: cell-based, human; settings: Homo sapiens; for AC50: MYB alternative junction mRNA, read-out: MYB AJ (increase in AJ mRNA, AC50)
In short: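 Splice switching quantified in compound-treated A673/K562 cells after 24 h exposure (top dose 10 uM, 3-fold steps, ≤0.25% DMSO), using CJ and AJ qPCR assays run at least in duplicate. RQ derived by 2^(−ΔΔCt), then percentage response.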

MYB = test: HiBiT protein abundance assay, MYB (K562 HiBiT knock-in); format: cell-based, human; settings: HiBiT knock-in K562 cells, 24 hours, top dose 10 μM
In short: (§1)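 Luminescence readout: Nano-Glo HiBiT lytic detection after 24 h compound exposure of K562 HiBiT knock-in cells, 10000 cells/well. Dosing 10-pt, 3-fold, top 10 μM final. % response vs untreated parental K562 and DMSO controls; 4PL fit, IC50 = concentration giving 50% protein abundance.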

K562 cells = test: Cell Titer Glo 2.0 cell viability (toxicity) assay, K562; settings: 500 cells/well, 72 hours
HTT = test: HiBiT protein abundance assay, HTT (K562 HiBiT knock-in); format: cell-based, human; settings: HiBiT knock-in K562 cells, 24 hours, top dose 10 μM
In short: as §1

[1] = MYB canonical junction mRNA, RT-qPCR, read-out: MYB CJ (decrease in CJ mRNA levels, IC50)
[2] = canonical junction qPCR panel, Table 4, read-out: MYB IC50 (decrease in CJ mRNA levels)

Row | IC50 (Target C) [nM] | IC50 (MYB mRNA; [1]) [nM] | IC50 (MYB mRNA; [2]) [nM] | IC50 (MYB) [nM] | IC50 (HTT) [nM] | SMILES | AC50 (MYB mRNA; RT-qPCR) [nM] | Effect of Exemplary Compounds on Cell Viability, K562 (K562 cells)
1 | > 10000 | 100 to 1000 | 100 to 1000 | 100 to 1000 | > 10000 | C[C@@H]1CN(c2ccc3nc(-c4cc5cn(C)nc5cc4O)ncc3c2)C[C@H](C)N1 [Compound 751, 5-{6-[(3R,5S)-3,5-dimethylpiperazin-1-yl]quinazolin-2-yl}-2-methylindazol-6-ol hydrochloride] | 100 to 1000 | B (B represents 100-1000 nM)
2 | 100 to 1000 | < 100 | < 100 | < 100 | 100 to 1000 | C[C@H]1CN(c2ccc3nc(-c4cc5cn(C)nc5cc4O)ncc3c2)C[C@H](C)N1 [Compound 752, 5-{6-[(3S,5S)-3,5-dimethylpiperazin-1-yl]quinazolin-2-yl}-2-methylindazol-6-ol] | < 100 | B (B represents 100-1000 nM)
3 | 100 to 1000 | 100 to 1000 | 100 to 1000 | 100 to 1000 | 100 to 1000 | C[C@@H]1CN(c2ccc3nc(-c4cc5cn(C)nc5cc4O)ncc3c2)C[C@@H](C)N1 [Compound 753, 5-{6-[(3R,5R)-3,5-dimethylpiperazin-1-yl]quinazolin-2-yl}-2-methylindazol-6-ol] | 100 to 1000 | A (A represents <100 nM)
4 | 100 to 1000 | 100 to 1000 | 100 to 1000 | 100 to 1000 | 100 to 1000 | CCN(CC)C1CCN(c2ccc3nc(-c4cc5cn(C)nc5c(F)c4O)ncc3c2)CC1 [Compound 756, 5-{6-[4-(diethylamino)piperidin-1-yl]quinazolin-2-yl}-7-fluoro-2-methylindazol-6-ol] | 100 to 1000 | B (B represents 100-1000 nM)

Continued, molecule first:

Row | SMILES | IC50 (Target C) [nM] | IC50 (MYB mRNA; [1]) [nM] | IC50 (MYB mRNA; [2]) [nM] | IC50 (MYB) [nM] | IC50 (HTT) [nM] | AC50 (MYB mRNA; RT-qPCR) [nM] | Effect of Exemplary Compounds on Cell Viability, K562 (K562 cells)
5 | CN[C@H]1CCN(c2cc3c(Cl)cc(-c4cc5cn(C)nc5c(C)c4O)nc3cc2C)C1 [Compound 749, 5-{4-chloro-7-methyl-6-[(3S)-3-(methylamino)pyrrolidin-1-yl]quinolin-2-yl}-2,7-dimethylindazol-6-ol] | > 10000 | 100 to 1000 | 100 to 1000 | 100 to 1000 | > 10000 | 100 to 1000 | B (B represents 100-1000 nM)
6 | Cn1cc2cc(-c3ncc4cc(N5CCC(N6CCC6)CC5)ccc4n3)c(O)c(F)c2n1 [Compound 750, 5-{6-[4-(azetidin-1-yl)piperidin-1-yl]quinazolin-2-yl}-7-fluoro-2-methylindazol-6-ol] | 100 to 1000 | < 100 | < 100 | 100 to 1000 | 100 to 1000 | 100 to 1000 | B (B represents 100-1000 nM)
